Assay [1] has as its target T1, human recombinant serotonin (5-Hydroxytryptamine) 5-HT2C receptor (Homo sapiens, UniProt P28335).
T1 construct: expressed in transfected cells; host or cells: CHO-K1 cells
T1 sequence (P28335 33-458): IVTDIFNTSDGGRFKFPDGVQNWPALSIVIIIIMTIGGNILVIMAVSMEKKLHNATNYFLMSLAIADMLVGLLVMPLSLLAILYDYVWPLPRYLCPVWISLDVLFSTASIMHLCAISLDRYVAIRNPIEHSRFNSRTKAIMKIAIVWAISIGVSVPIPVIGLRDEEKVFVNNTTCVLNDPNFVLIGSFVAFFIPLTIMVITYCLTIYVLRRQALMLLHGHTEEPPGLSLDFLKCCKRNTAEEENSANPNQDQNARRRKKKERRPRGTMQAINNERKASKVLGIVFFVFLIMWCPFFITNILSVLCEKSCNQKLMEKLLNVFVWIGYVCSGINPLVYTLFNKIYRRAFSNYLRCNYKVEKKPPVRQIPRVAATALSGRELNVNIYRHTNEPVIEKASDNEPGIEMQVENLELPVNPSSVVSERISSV
As to the kind of experiment: Serotonin 5-HT2C radioligand binding ([3H]Mesulergine). The following applies: compound at 1 μM; read-out: Serotonin (1 μM) 5-HT2C, percent inhibition of specific binding. As for the experimental part: To evaluate in radioligand binding assays the activity of compounds of the invention, human recombinant serotonin (5-Hydroxytryptamine) 5-HT2C receptor expressed in Chinese hamster ovary (CHO-K1) cells (Wolf, W. A. and Schutz, J. S., J. Neurochem. 69:1449, 1997) in a modified Tris-HCl buffer (50 mM Tris-HCl, pH 7.4, 0.1% Ascorbic Acid, 10 μM Pargyline) was used. Compounds of the invention were incubated with 1 nM [^3H]Mesulergine for 60 min. at 25° C. Non-specific binding was estimated in the presence of 1 μM Mianserin. Receptor proteins were filtered and washed, the filters were then counted to determine [^3H]Mesulergine specifically bound. Compounds were screened at 1 μM or lower, using 1% DMSO as vehicle. Biochemical assay results are presented as the percent inhibition of specific binding in Table 6.

Assay [2] concerns the target T2, human recombinant dopamine D2L receptor (Homo sapiens, UniProt P14416).
T2 construct: expressed in transfected cells; host or cells: CHO cells
As to the kind of experiment: Dopamine D2L radioligand binding ([3H]Spiperone). The following applies: compound at 1 μM; read-out: Dopamine (1 μM) D2L, percent inhibition of specific binding. As for the experimental part: To evaluate in radioligand binding assays the activity of compounds of the invention, human recombinant dopamine D2L receptor expressed in Chinese hamster ovary (CHO) cells (Grandy, D. K. et al. Proc. Natl. Acad. Sci. USA. 86:9762, 1989; Hayes, G. et al., Mol. Endocrinol. 6:920, 1992) in a modified Tris-HCl buffer (50 mM Tris-HCl, pH 7.4, 1.4 mM Ascorbic Acid, 0.001% BSA, 150 mM NaCl) was used. Compounds of the invention were incubated with 0.16 nM [^3H]Spiperone for 120 min. at 25° C. Non-specific binding was estimated in the presence of 10 μM Haloperidol. Receptor proteins were filtered and washed, the filters were then counted to determine [^3H]Spiperone specifically bound. Compounds were screened at 1 μM or lower, using 1% DMSO as vehicle. Biochemical assay results are presented as the percent inhibition of specific binding in Table 5.

Assay [3] has as its target T3, human recombinant serotonin (5-Hydroxytryptamine) 5-HT2A receptor (Homo sapiens, UniProt P28223).
T3 construct: expressed in transfected cells; host or cells: CHO-K1 cells
As to the kind of experiment: Serotonin 5-HT2A radioligand binding ([3H]Ketanserin). Particulars: compound at 1 μM; read-out: Serotonin (1 μM) 5-HT2A, percent inhibition of specific binding. As for the experimental part:
To evaluate in radioligand binding assays the activity of compounds of the invention, human recombinant serotonin (5-Hydroxytryptamine) 5-HT2A receptor expressed in Chinese hamster ovary (CHO-K1) cells (Bonhaus, D. W. et al. Br. J. Pharmacol. 115:622, 1995; Saucier, C. and Albert, P. R., J. Neurochem. 68:1998, 1997) in a 50 mM Tris-HCl buffer, pH 7.4, was used. Compounds of the invention were incubated with 0.5 nM [^3H]Ketanserin for 60 min. at 25° C. Non-specific binding was estimated in the presence of 1 μM Mianserin. Receptor proteins were filtered and washed, the filters were then counted to determine [^3H]Ketanserin specifically bound. Compounds were screened at 1 μM or lower, using 1% DMSO as vehicle. Biochemical assay results are presented as the percent inhibition of specific binding in Table 6.

The target of assay [4] is T4, human recombinant histamine H1 receptor (Homo sapiens, UniProt P35367).
T4 construct: expressed in transfected cells; host or cells: CHO cells
T4 sequence (P35367 whole entry): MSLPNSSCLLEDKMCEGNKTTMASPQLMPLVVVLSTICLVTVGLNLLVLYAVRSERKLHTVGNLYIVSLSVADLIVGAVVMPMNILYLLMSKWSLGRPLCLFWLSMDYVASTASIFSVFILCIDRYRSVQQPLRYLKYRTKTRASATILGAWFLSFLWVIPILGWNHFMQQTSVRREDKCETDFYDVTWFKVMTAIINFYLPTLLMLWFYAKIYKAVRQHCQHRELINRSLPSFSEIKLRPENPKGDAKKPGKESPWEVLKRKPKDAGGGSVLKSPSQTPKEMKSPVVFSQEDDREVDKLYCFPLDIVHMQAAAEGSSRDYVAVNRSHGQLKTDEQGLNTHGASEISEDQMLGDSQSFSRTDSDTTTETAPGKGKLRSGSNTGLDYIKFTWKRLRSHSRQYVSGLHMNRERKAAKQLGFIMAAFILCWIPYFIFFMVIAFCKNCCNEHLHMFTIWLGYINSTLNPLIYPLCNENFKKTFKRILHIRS
As to the kind of experiment: Histamine H1 radioligand binding ([3H]Pyrilamine). Particulars: compound at 1 μM; read-out: Histamine Binding (1 μM) H1, percent inhibition of specific binding. As for the experimental part:
To evaluate in radioligand binding assays the activity of compounds of the invention, human recombinant histamine H1 receptor expressed in Chinese hamster ovary (CHO) cells (De Backer, M. D. et al., Biochem. Biophys. Res. Comm. 197(3):1601, 1993) in a modified Tris-HCl buffer (50 mM Tris-HCl, pH 7.4, 2 mM MgCl2, 100 mM NaCl, 250 mM Sucrose) was used. Compounds of the invention were incubated with 1.2 nM [^3H]Pyrilamine for 180 min. at 25° C. Non-specific binding was estimated in the presence of 1 μM pyrilamine. Receptor proteins were filtered and washed, the filters were then counted to determine [^3H]Pyrilamine specifically bound. Compounds were screened at 1 μM or lower, using 1% DMSO as vehicle. Biochemical assay results are presented as the percent inhibition of specific binding in Table 6.

For assay [5], the target named is T5, human recombinant serotonin (5-Hydroxytryptamine) 5-HT6 receptor (Homo sapiens, UniProt P50406).
T5 construct: expressed in transfected cells; host or cells: human HeLa cells
T5 sequence (P50406 whole entry): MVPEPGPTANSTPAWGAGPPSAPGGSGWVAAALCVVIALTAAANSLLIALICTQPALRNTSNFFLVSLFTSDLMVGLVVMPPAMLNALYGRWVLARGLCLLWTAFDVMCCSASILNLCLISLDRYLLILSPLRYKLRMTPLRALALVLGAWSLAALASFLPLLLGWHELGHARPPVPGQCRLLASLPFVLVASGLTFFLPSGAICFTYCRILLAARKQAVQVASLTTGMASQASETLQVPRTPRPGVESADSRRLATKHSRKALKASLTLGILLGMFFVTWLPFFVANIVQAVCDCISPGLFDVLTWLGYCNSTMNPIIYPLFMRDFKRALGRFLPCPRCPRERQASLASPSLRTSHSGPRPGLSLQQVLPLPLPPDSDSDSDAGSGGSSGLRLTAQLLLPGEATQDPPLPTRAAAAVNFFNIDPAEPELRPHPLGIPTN
Put plainly: Serotonin 5-HT6 radioligand binding ([3H]LSD). Particulars: compound at 1 μM; read-out: Serotonin (1 μM) 5-HT6, percent inhibition of specific binding. As for the experimental part: To evaluate in radioligand binding assays the activity of compounds of the invention, human recombinant serotonin (5-Hydroxytryptamine) 5-HT6 receptor expressed in human HeLa cells (Monsma, F. J. Jr. et al., Mol. Pharmacol. 43:320, 1993) in a modified Tris-HCl buffer (50 mM Tris-HCl, pH 7.4, 150 mM NaCl, 2 mM Ascorbic Acid, 0.001% BSA) was used. Compounds of the invention were incubated with 1.5 nM [3H]Lysergic acid diethylamide (LSD) for 120 min. at 37° C. Non-specific binding was estimated in the presence of 5 μM Serotonin (5-HT). Receptor proteins were filtered and washed, the filters were then counted to determine [3H]LSD specifically bound. Compounds were screened at 1 μM or lower, using 1% DMSO as vehicle. Biochemical assay results are presented as the percent inhibition of specific binding in Table 6.

Assay [6] has as its target T6, human recombinant histamine H2 receptor (Homo sapiens, UniProt P25021).
T6 construct: expressed in transfected cells; host or cells: CHO-K1 cells
As to the kind of experiment: Histamine H2 radioligand binding ([125I]Aminopotentidine). The following applies: compound at 1 μM; read-out: Histamine Binding (1 μM) H2, percent inhibition of specific binding. As for the experimental part:
To evaluate in radioligand binding assays the activity of compounds of the invention, human recombinant histamine H2 receptor expressed in Chinese hamster ovary (CHO) K1 cells (Ruat, M., Proc. Natl. Acad. Sci. USA. 87(5):1658, 1990) in a 50 mM Phosphate buffer, pH 7.4 was used. Compounds of the invention were incubated with 0.1 nM [^125I]Aminopotentidine for 120 min. at 25° C. Non-specific binding was estimated in the presence of 3 μM Tiotidine. Receptor proteins were filtered and washed, the filters were then counted to determine [^125I]Aminopotentidine specifically bound. Compounds were screened at 1 μM or lower, using 1% DMSO as vehicle. Biochemical assay results are presented as the percent inhibition of specific binding in Table 6.

T3 sequence (P28223 whole entry): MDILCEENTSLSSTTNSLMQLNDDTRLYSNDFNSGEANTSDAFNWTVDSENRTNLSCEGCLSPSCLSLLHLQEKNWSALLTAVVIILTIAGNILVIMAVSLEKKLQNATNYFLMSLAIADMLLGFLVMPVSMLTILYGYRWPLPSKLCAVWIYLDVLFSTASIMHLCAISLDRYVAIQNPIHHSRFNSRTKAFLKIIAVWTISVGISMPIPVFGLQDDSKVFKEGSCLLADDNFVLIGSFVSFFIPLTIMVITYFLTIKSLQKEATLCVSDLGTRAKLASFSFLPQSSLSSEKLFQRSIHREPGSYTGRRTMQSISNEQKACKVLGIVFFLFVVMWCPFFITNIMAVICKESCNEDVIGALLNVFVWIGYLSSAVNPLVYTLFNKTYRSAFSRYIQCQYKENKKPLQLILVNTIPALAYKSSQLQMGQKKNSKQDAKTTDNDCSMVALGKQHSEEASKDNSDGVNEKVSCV
T6 sequence (P25021 whole entry): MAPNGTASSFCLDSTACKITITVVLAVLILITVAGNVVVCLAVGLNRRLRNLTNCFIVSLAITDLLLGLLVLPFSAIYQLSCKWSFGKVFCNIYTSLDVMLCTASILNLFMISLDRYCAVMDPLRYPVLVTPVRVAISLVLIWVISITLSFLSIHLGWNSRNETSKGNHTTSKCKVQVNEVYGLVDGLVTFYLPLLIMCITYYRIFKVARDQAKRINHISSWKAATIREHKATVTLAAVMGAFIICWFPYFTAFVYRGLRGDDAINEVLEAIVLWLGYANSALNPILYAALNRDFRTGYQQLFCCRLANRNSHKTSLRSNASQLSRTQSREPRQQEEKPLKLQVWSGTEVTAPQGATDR
T2 sequence (P14416 whole entry): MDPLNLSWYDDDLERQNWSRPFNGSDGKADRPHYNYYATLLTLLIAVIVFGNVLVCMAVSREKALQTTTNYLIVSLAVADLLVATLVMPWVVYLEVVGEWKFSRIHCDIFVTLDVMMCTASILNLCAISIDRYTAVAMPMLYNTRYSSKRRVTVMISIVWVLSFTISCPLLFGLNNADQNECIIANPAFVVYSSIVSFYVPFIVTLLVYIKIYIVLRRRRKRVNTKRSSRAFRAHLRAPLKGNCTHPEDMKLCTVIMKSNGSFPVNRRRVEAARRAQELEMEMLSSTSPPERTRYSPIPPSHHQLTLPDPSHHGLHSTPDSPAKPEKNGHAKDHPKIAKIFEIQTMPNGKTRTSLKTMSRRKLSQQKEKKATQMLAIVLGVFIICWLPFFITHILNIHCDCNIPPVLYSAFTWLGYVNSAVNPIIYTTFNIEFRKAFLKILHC

The term inhibition denotes the change of the read-out against control, counted positive when it falls. On to `C/C(=C\n1c2c(c3cc(Cl)ccc31)CCN(C)CC2)c1ccccc1F` [Compound No. 243, (E)-9-chloro-6-(2-(2-fluorophenyl)prop-1-enyl)-3-methyl-1,2,3,4,5,6-hexahydroazepino[4,5-b]indole], for which the inhibition at 1 µM in assay [1] came to 102%; in assay [2], 32%; in assay [3], 98%; in assay [4], 93%; in assay [5] it was 99%; in assay [6] it was 84%.

As to `C/C(=C/n1c2c(c3cc(C)ccc31)CCN(C)CC2)c1cccc(F)c1` [Compound No. 251, (Z)-6-(2-(3-fluorophenyl)prop-1-enyl)-3,9-dimethyl-1,2,3,4,5,6-hexahydroazepino[4,5-b]indole], the inhibition at 1 µM turned out to be 99% in assay [1]; 35% in assay [2]; 101% in assay [3]; 96% in assay [4]; 99% in assay [5]; 95% in assay [6].

`C/C(=C\n1c2c(c3cc(Cl)ccc31)CCN(C)CC2)c1cccnc1` [Compound No. 246, (E)-9-chloro-3-methyl-6-(2-(pyridin-3-yl)prop-1-enyl)-1,2,3,4,5,6-hexahydroazepino[4,5-b]indole]: the inhibition at 1 µM in assay [1] was found to be 99%; in assay [2] it was 14%; in assay [3], 98%; in assay [4], 96%; in assay [5], 94%; in assay [6], 48%.

`C/C(=C\n1c2c(c3cc(Cl)ccc31)CCN(C)CC2)c1ccncc1` [Compound No. 248, (E)-9-chloro-3-methyl-6-(2-(pyridin-4-yl)prop-1-enyl)-1,2,3,4,5,6-hexahydroazepino[4,5-b]indole]: the inhibition at 1 µM came out at 101% in assay [1]; 81% in assay [2]; 99% in assay [3]; 88% in assay [4]; 103% in assay [5]; 44% in assay [6].

For the molecule `C/C(=C\n1c2c(c3cc(C)ccc31)CCN(C)CC2)c1ccc(Cl)c(Cl)c1` [Compound No. 176, (E)-6-(2-(3,4-dichlorophenyl)prop-1-enyl)-1,2,3,4,5,6-hexahydro-3,9-dimethylazepino[4,5-b]indole], the inhibition at 1 µM is 99% in assay [1]; 23% in assay [2]; 99% in assay [3]; 82% in assay [4]; 74% in assay [5]; 95% in assay [6].

As to `C/C(=C/n1c2c(c3cc(Cl)ccc31)CCN(C)CC2)c1ccccc1F` [Compound No. 242, (Z)-9-chloro-6-(2-(2-fluorophenyl)prop-1-enyl)-3-methyl-1,2,3,4,5,6-hexahydroazepino[4,5-b]indole], the inhibition at 1 µM was 94% in assay [1]; 69% in assay [2]; 99% in assay [3]; 100% in assay [4]; 102% in assay [5]; 98% in assay [6].

As for `C/C(=C\n1c2c(c3cc(C)ccc31)CCN(C)CC2)c1cccc(F)c1` [Compound No. 252, (E)-6-(2-(3-fluorophenyl)prop-1-enyl)-3,9-dimethyl-1,2,3,4,5,6-hexahydroazepino[4,5-b]indole], the inhibition at 1 µM in assay [1] amounted to 87%; in assay [2], 19%; in assay [3], 96%; in assay [4], 93%; in assay [5], 98%; in assay [6], 87%.

In the case of `COc1ccc(/C(C)=C/n2c3c(c4cc(C)ccc42)CCN(C)CC3)cc1` [Compound No. 182, (E)-1,2,3,4,5,6-hexahydro-6-(2-(4-methoxyphenyl)prop-1-enyl)-3,9-dimethylazepino[4,5-b]indole], the inhibition at 1 µM in assay [1] turned out to be 102%; in assay [2] it was 19%; in assay [3], 101%; in assay [4], 62%; in assay [5] it was 96%; in assay [6], 92%.

Turning to `C/C(=C\n1c2c(c3cc(Cl)ccc31)CCN(C)CC2)c1ccc(Cl)c(Cl)c1` [Compound No. 154, (E)-9-chloro-6-(2-(3,4-dichlorophenyl)prop-1-enyl)-1,2,3,4,5,6-hexahydro-3-methylazepino[4,5-b]indole], the inhibition at 1 µM worked out at 99% in assay [1]; 33% in assay [2]; 100% in assay [3]; 94% in assay [4]; 92% in assay [5]; 97% in assay [6].

Consider `C/C(=C\n1c2c(c3cc(C)ccc31)CCN(C)CC2)c1ccncc1` [Compound No. 253, (E)-3,9-dimethyl-6-(2-(pyridin-4-yl)prop-1-enyl)-1,2,3,4,5,6-hexahydroazepino[4,5-b]indole], for which the inhibition at 1 µM worked out at 101% in assay [1]; 55% in assay [2]; 102% in assay [3]; 32% in assay [4]; 103% in assay [5]; 31% in assay [6].

The values are drawn from US9481676B2, “Azepino[4,5-B]indoles and methods of use” (Medivation Technologies, Inc., priority 2008, dated 2016).
